The source of these data is US12421238B2, “Selective dihydropyrrolopyrimidine JAK2 inhibitors” (CHENGDU JINRUI FOUNDATION BIOTECH CO., LTD., priority 2019, dated 2025).

Data set [1] concerns the target JAK1 (Homo sapiens, UniProt P23458). The experiment in a line: Kinase activity test on JAK1 (Caliper EZ Reader conversion rate).
For data set [2], the target named is JAK2 (Homo sapiens, UniProt O60674). Put plainly: Kinase activity test on JAK2 (Caliper EZ Reader conversion rate). The following applies: for JAK1/JAK2 / JAK3/JAK2: ratio of IC50 values; for JAK1/JAK2: selectivity for JAK2 over JAK1; for JAK3/JAK2: selectivity for JAK2 over JAK3.
The test system of data set [3] is TF-1. Put plainly: TF-1 cell proliferation experiment (CellTiter Glo). In kind it is cell-based. The following applies: Homo sapiens; TF-1 cells, 72 hours; read-out: TF-1 (μM), proliferation inhibition. Background: In ATP-based viability assays light output follows the ATP content of the culture.
Data set [4] can be described thus: Pharmacokinetic test in SD rats, intragastric administration. Type of data set: in vivo. The following applies: rat, po, single intragastric administration, 25 mg/kg, plasma; for Cmax: read-out: Blood concentration Cmax; for AUC(0-t): read-out: Curve area AUClast; for half-life: read-out: Half life t1/2 (converted); for Tmax: read-out: Time to peak Tmax. As for the experimental part: SD rats were used as the test animals.
Standard curve and preparation and processing of quality control samples:
Stock solution was diluted with 50% acetonitrile/water solution to obtain standard working solutions of 0.04, 0.10, 0.20, 0.40, 1.00, 2.00, 4.00 μg/mL, and quality control working solutions of 0.10, 1.00, 3.00 μg/mL. 2.50 μL of standard curve working solutions and quality control working solutions were added to 47.5 μL of blank rat plasma, respectively, to obtain standard curve solutions having analyte concentrations of 2.00, 5.00, 10.00, 20.00, 50.00, 100.00, 200.00 ng/mL and quality control samples having concentrations of 5.00, 50.00, and 150.00 ng/mL. 200 μL of acetonitrile (containing 5 ng/mL of the internal standard loratadine) was added. After vortexing for 3 minutes, the solutions were centrifuged at 15000 rpm at 4° C. for 15 minutes. 100 μL of the supernatant was taken for LC-MS/MS analysis. WinNonlin® 8.0 was used to calculate the experimental results.

The target in data set [5] is T1, JAK3 (Homo sapiens, UniProt P52333).
T1 sequence (P52333 1-1124): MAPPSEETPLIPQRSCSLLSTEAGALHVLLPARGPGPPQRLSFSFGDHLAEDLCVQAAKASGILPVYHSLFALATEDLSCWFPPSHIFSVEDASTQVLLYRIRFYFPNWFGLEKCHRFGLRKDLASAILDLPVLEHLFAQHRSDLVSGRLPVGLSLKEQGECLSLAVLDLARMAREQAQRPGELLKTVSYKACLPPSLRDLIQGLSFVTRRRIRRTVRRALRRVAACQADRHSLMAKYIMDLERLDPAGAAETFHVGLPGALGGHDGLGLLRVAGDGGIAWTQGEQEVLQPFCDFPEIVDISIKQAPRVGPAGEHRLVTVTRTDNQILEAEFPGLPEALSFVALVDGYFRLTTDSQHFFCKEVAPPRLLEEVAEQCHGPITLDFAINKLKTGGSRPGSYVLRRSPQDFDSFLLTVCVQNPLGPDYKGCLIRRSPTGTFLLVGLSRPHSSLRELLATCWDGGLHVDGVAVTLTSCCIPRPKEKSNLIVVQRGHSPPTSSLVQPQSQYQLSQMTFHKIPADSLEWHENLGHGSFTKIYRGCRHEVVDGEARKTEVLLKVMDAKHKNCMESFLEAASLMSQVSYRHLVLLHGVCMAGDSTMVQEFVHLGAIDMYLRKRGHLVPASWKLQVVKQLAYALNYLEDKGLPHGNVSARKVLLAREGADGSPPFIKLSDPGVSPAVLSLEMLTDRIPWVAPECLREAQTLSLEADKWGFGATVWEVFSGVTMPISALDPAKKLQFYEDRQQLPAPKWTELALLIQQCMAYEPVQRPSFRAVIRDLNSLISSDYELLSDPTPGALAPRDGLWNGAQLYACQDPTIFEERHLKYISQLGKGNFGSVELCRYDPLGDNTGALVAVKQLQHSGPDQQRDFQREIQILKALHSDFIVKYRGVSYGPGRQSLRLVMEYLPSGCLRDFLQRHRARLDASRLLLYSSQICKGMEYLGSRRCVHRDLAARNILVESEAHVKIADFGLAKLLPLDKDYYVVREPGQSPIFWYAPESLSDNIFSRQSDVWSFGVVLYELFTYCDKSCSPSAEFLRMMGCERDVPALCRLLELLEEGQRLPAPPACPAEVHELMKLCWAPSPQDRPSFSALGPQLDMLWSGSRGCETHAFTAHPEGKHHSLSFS
Put plainly: Kinase activity test on JAK3 (Caliper EZ Reader conversion rate).

Data set [6] relates to HEL92.1.7. Put plainly: HEL92.1.7 cell proliferation experiment (Cell Titer-Glo). In kind it is cell-based. The following applies: Homo sapiens, HEL 92.1.7; HEL92.1.7 cells, 72 hours.
Data set [7] is described as follows: Acute toxicity test, single oral administration to ICR mice (MTD). In kind it is in vivo. The following applies: ICR, mouse, in vivo, po, read-out: MTD (maximum tolerated dose).
Data set [8] concerns ICR mice. The description is as above. Type of data set: in vivo.

Chain of JAK2 (O60674 whole entry): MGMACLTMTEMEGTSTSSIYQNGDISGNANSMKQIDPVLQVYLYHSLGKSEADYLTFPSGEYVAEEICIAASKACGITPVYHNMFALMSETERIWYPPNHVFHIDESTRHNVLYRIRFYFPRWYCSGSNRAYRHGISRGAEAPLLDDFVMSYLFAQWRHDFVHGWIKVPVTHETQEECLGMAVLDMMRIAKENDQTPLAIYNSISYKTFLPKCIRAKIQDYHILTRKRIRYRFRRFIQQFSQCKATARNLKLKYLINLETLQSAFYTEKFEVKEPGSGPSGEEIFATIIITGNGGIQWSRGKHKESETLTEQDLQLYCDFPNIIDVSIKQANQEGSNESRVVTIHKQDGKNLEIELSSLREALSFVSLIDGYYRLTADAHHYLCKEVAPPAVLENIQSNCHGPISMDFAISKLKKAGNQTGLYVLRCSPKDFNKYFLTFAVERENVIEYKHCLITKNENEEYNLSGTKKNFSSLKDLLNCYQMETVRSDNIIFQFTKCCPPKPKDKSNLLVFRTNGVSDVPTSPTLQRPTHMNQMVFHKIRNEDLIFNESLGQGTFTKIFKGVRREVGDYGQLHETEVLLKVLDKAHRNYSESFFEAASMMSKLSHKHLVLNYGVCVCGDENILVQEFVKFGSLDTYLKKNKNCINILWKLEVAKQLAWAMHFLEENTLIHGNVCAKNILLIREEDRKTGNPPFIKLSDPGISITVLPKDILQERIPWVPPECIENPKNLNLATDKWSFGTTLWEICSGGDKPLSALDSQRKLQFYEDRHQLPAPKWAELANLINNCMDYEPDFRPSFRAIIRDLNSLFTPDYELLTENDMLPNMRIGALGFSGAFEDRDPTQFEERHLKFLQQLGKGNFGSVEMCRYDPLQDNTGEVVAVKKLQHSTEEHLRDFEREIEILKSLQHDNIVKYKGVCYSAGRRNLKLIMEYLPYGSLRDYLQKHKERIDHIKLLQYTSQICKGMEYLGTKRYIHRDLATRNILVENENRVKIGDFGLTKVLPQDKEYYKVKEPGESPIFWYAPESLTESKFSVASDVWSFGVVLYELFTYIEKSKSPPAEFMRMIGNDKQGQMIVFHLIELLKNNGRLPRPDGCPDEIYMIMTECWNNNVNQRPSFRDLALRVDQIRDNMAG
Chain of JAK1 (P23458 whole entry): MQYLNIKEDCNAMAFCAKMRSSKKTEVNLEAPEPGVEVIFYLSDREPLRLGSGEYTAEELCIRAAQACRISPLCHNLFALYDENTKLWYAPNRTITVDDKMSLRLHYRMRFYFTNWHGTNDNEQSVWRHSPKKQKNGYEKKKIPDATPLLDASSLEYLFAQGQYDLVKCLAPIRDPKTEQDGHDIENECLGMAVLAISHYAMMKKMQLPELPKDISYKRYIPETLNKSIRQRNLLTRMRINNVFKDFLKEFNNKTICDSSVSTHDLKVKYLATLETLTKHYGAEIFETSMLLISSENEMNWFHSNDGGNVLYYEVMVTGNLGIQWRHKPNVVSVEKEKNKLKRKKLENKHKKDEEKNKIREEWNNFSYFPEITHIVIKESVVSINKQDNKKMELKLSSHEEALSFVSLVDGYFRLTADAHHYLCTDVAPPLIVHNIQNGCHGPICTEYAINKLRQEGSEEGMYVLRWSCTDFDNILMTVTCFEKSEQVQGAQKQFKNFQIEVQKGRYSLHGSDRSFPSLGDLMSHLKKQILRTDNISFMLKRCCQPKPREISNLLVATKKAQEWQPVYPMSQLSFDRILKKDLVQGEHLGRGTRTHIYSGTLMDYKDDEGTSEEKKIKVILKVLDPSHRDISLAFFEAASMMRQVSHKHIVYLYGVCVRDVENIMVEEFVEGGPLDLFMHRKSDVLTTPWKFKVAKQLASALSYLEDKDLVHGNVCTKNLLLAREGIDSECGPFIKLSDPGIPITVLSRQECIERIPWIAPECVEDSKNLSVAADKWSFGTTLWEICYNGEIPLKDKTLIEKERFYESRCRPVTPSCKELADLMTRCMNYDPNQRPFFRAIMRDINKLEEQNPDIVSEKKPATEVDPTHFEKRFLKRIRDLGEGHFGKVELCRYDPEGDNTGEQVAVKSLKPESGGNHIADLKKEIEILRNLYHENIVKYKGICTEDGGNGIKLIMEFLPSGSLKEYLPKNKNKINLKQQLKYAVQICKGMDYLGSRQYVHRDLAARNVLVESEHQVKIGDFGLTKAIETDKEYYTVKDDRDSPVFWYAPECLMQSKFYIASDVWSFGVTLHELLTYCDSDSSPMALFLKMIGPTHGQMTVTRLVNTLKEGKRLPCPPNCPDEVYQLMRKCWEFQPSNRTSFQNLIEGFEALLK

In data set [1], `CC(C)(C)NS(=O)(=O)c1cccc(N2CCc3cnc(Nc4ccc(OCCN5CCCCC5)cc4)nc32)c1` [Compound I-5] came in with an IC50 of 99 nM. In addition, in data set [2], the IC50 was determined as 1.1 nM, the JAK1/JAK2 stood at 90 and the JAK3/JAK2 is recorded as 1118. Also, in data set [3], the IC50 came to 0.22 µM. In data set [4], the Cmax was found to be 1120 ng/mL, the AUC(0-t) was found to be 812 ng·h/mL, the half-life was 6.1 h and the Tmax (usually the time from dosing to the highest level) was found to be 1.5 h. Moreover, in data set [5], the IC50 amounted to 1230 nM. The compound further yielded an IC50 in data set [6] of 0.18 µM.
In data set [1], `CC(C)(C)NS(=O)(=O)c1cccc(N2CCc3cnc(Nc4ccc(OC5CCNCC5)cc4)nc32)c1` [Compound I-19] registered an IC50 of 121 nM. Besides, in data set [2], the IC50 amounted to 0.9 nM, the JAK1/JAK2 came out at 134 and the JAK3/JAK2 is 1689. In addition, the IC50 in data set [3] worked out at 0.17 µM. The MTD (in general, the highest dose tested that stayed within the study's limit of toxicity) at 6 days in data set [7] was no less than 1000 mg/kg. Also, in data set [8], the “MTD (maximum tolerated dose)” value was found to be 1500 mg/kg. Moreover, in data set [4], the Cmax worked out at 1120 ng/mL, the AUC(0-t) is 935 ng·h/mL, the half-life is 6.2 h and the Tmax came out at 1.5 h. This compound yielded an IC50 in data set [5] of 1520 nM. Besides, the IC50 in data set [6] worked out at 0.21 µM.
On to `Cc1cnc(Nc2ccc(OCCN3CCCC3)cc2)nc1Nc1cccc(S(=O)(=O)NC(C)(C)C)c1` [Fedratinib, reference compound], for which, in data set [3], the IC50 is 1.57 µM. For the same compound, the MTD at 6 days in data set [7] worked out at 250 mg/kg. Also, in data set [4], the Cmax is 579 ng/mL, the AUC(0-t) amounted to 559 ng·h/mL, the half-life is 4 h and the Tmax stood at 1.5 h. The IC50 in data set [6] was 0.58 µM.
In turn, `CC(C)(C)NS(=O)(=O)c1cccc(N2CCc3cnc(Nc4ccc(OCCN5CCOCC5)cc4)nc32)c1` [Compound I-3] showed an IC50 in data set [1] of 100 nM. Moreover, in data set [2], the IC50 was 1 nM, the JAK1/JAK2 stood at 100 and the JAK3/JAK2 was 877. Also, the IC50 in data set [3] was 0.18 µM. In data set [4], the Cmax came out at 1230 ng/mL, the AUC(0-t) is 903 ng·h/mL, the half-life was 5.9 h and the Tmax came to 1.5 h. Besides, the IC50 in data set [5] was found to be 877 nM. This compound came in with an IC50 in data set [6] of 0.19 µM.
In data set [1], `CN1CCN(CCOc2ccc(Nc3ncc4c(n3)N(c3cccc(S(=O)(=O)NC(C)(C)C)c3)CC4)cc2)CC1` [Compound I-4] registered an IC50 of 105 nM. For the same compound, in data set [2], the IC50 turned out to be 1.2 nM, the JAK1/JAK2 was determined as 87 and the JAK3/JAK2 was found to be 850. Further, in data set [3], the IC50 is 0.18 µM. In data set [7], the maximum tolerated dose (MTD) at 6 days is no less than 1000 mg/kg. For the same compound, the “MTD (maximum tolerated dose)” value in data set [8] stood at 1000 mg/kg. For the same compound, in data set [4], the Cmax came to 1100 ng/mL, the AUC(0-t) was 807 ng·h/mL, the half-life is 6.2 h and the Tmax came to 1.5 h. Moreover, in data set [5], the IC50 is 1020 nM. For the same compound, the IC50 in data set [6] turned out to be 0.34 µM.
Consider `CC(C)(C)NS(=O)(=O)c1cccc(N2CCc3cnc(Nc4ccc(OCCN5CCNCC5)cc4)nc32)c1` [Compound I-2], for which the IC50 in data set [1] is 189 nM. In data set [2], the IC50 turned out to be 1.1 nM, the JAK1/JAK2 turned out to be 172 and the JAK3/JAK2 stood at 891. In addition, the IC50 in data set [3] was 0.21 µM. Further, the MTD at 6 days in data set [7] was no less than 1000 mg/kg. For the same compound, the “MTD (maximum tolerated dose)” value in data set [8] was 1500 mg/kg. In data set [4], the Cmax was found to be 1020 ng/mL, the AUC(0-t) was determined as 839 ng·h/mL, the half-life is 6 h and the Tmax was 1.5 h. In data set [5], this compound showed an IC50 of 980 nM. In addition, in data set [6], the IC50 came out at 0.3 µM.
In data set [1], `CC(C)(C)NS(=O)(=O)c1cccc(N2CCc3cnc(Nc4ccc(OCCN5CCSCC5)cc4)nc32)c1` [Compound I-14] yielded an IC50 of 102 nM. Moreover, in data set [2], the IC50 is 1.1 nM, the JAK1/JAK2 was determined as 93 and the JAK3/JAK2 stood at 907. Besides, the IC50 in data set [3] is 0.28 µM. In data set [4], the Cmax came out at 1230 ng/mL, the AUC(0-t) is 900 ng·h/mL, the half-life is 6.9 h and the time to peak (Tmax) turned out to be 1.5 h. The IC50 in data set [5] came to 998 nM. In data set [6], this compound gave an IC50 of 0.43 µM.
Consider `CC(C)(C)NS(=O)(=O)c1cccc(N2CCc3cnc(Nc4ccc(CN5CCSCC5)cc4)nc32)c1` [Compound I-13], for which the IC50 in data set [1] stood at 89 nM. Also, in data set [2], the IC50 turned out to be 1 nM, the JAK1/JAK2 stood at 89 and the JAK3/JAK2 was found to be 865. In addition, in data set [3], the IC50 came to 0.27 µM. In addition, the MTD at 6 days in data set [7] was no less than 1000 mg/kg. Further, in data set [4], the Cmax was determined as 979 ng/mL, the AUC(0-t) stood at 955 ng·h/mL, the half-life is 5.5 h and the Tmax turned out to be 2 h. For the same compound, the IC50 in data set [5] was found to be 865 nM. This compound came in with an IC50 in data set [6] of 0.31 µM.
`CN1CCN(c2ccc(Nc3ncc4c(n3)N(c3cccc(S(=O)(=O)NC(C)(C)C)c3)CC4)cc2)CC1` [Compound I-15] showed an IC50 in data set [1] of 72 nM. In data set [2], the IC50 stood at 0.73 nM, the JAK1/JAK2 is on record as 99 and the JAK3/JAK2 was 819. In addition, the IC50 in data set [3] is 0.12 µM. Moreover, the MTD at 6 days in data set [7] was greater than 2000 mg/kg. Further, the “MTD (maximum tolerated dose)” value in data set [8] is on record as greater than 2000 mg/kg. In addition, in data set [4], the Cmax was 1240 ng/mL, the AUC(0-t) stood at 934 ng·h/mL, the half-life was 6.8 h and the Tmax turned out to be 1.5 h. The IC50 in data set [5] was 598 nM. Besides, in data set [6], the IC50 was found to be 0.17 µM.
On to `CC(C)(C)NS(=O)(=O)c1cccc(N2CCc3cnc(Nc4ccc(CC5CCOCC5)cc4)nc32)c1` [Compound I-10], for which the IC50 in data set [1] worked out at 100 nM; in data set [2] it was 0.5 nM; in data set [3] it was 0.19 µM; in data set [5] it was 987 nM; in data set [6] it was 0.2 µM. In data set [2], the JAK1/JAK2 is reported as 200. In addition, the JAK3/JAK2 in data set [2] came out at 1974.
In the case of `CN1CCN(Cc2ccc(Nc3ncc4c(n3)N(c3cccc(S(=O)(=O)NC(C)(C)C)c3)CC4)cc2)CC1` [Compound I-12], the IC50 in data set [1] worked out at 98 nM; in data set [2], 0.7 nM; in data set [3], 0.2 µM; in data set [5], 879 nM; in data set [6], 0.22 µM. The JAK1/JAK2 in data set [2] amounted to 140. For the same compound, the JAK3/JAK2 in data set [2] came to 1256.
With `CC(C)(C)NS(=O)(=O)c1cccc(N2CCc3cnc(Nc4ccc(OCCN5CCCC5)cc4)nc32)c1` [Compound I-1], the IC50 in data set [1] is 210 nM. In addition, in data set [2], the IC50 was found to be 2.5 nM, the JAK1/JAK2 was determined as 84 and the JAK3/JAK2 came out at 504. The IC50 in data set [3] was 0.15 µM. In data set [7], the MTD at 6 days was greater than 2000 mg/kg. Moreover, in data set [4], the Cmax was determined as 998 ng/mL, the AUC(0-t) was determined as 798 ng·h/mL, the half-life was 5.8 h and the Tmax was 1 h. In data set [5], this compound returned an IC50 of 1260 nM. This compound displayed an IC50 in data set [6] of 0.23 µM.
